Legend:
Serine protease 1 = Serine protease 1 (Homo sapiens, UniProt P07477); experiment: Compound was evaluated for its inhibitory activity against trypsin
Prothrombin = Prothrombin (Homo sapiens, UniProt P00734); experiment: Compound was evaluated for its inhibitory activity against human thrombin

Chain of Serine protease 1 (P07477 whole entry): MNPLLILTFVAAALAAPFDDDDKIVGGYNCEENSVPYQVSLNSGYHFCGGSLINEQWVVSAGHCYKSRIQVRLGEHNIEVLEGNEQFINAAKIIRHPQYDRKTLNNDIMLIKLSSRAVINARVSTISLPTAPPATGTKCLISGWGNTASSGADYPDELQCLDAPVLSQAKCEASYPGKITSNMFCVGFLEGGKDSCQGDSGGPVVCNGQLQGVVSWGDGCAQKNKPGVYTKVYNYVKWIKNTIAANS

Ki (Serine protease 1) [µM]	Ki (Prothrombin) [µM]	SMILES
77	1.3	c1ccc(C(Oc2ccc(CNc3ccncc3)cc2)c2ccccc2)cc1
> 10	> 10	Nc1ccc(Cc2ccc(OCc3ccccc3)cc2)cc1
–	581	NC1CCN(Cc2ccc(OCc3ccccc3)cc2)CC1
568	7.9	c1ccc(COc2ccc(CCNc3ccncc3)cc2)cc1
517	0.058	Nc1cc[n+](Cc2ccc(OC(c3ccccc3)c3ccccc3)cc2)cc1
–	> 500	c1ccc(COc2ccc(C[n+]3ccccc3)cc2)cc1
77	0.7	Nc1cc[n+](Cc2ccc(OCc3ccccc3)cc2)cc1
16	0.16	Nc1cc[n+](Cc2ccc(OC(CCc3ccccc3)c3ccccc3)cc2)cc1 (stereo unspecified)
233	4.7	c1ccc(COc2ccc(CNc3ccncc3)cc2)cc1

From ChEMBL document CHEMBL1131365, “Identification and SAR for a selective, nonpeptidyl thrombin inhibitor” (Bioorg Med Chem Lett, 1998)
